Measured values from the METLIN SMRT retention time set (Domingo-Almenara et al. 2019).

Experiment: gradient 5% acetonitrile 3 min, to 50% in 2 min, to 85% in 15 min, held 3 min, 100 µL/min
Conditions: column: Zorbax Extend-C18 2.1 x 50 mm; eluents: water / acetonitrile, 0.1% formic acid
In short: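 Retention times come from adduct peaks that were picked computationally and then checked by hand. The standards, pure and pooled in mixtures of ~100 molecules, were run on a Zorbax Extend-C18 column (2.1 × 50 mm, 1.8 μm) at 100 μL/min with water and acetonitrile, each with 0.1% formic acid. Detection was by quadrupole time-of-flight mass spectrometry in positive and negative ionization mode, with a dead volume of 40 μL and a dwell volume of 900 μL.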

| RP-LC retention time | Compound |
| --- | --- |
| 660 s | CCc1ccc(NC(=O)C2CCN(S(=O)(=O)c3cc(-c4noc(CC)n4)cs3)CC2)cc1 |
| 771 s | COc1ccccc1NC(=O)CN1CCN(Cc2ccc(C)cc2)C(=O)C1=O |
| 754 s | CCCNC(=O)c1ccc(-c2csc(C)n2)cc1 |
| 755 s | Cc1cccc(-c2ncccc2CNS(=O)(=O)c2ccc(F)c(F)c2)c1 |
| 907 s | Cc1ccccc1NC(=O)Cn1nc2cc(-c3ccccc3)nc(C)n2c1=O |
| 560 s | O=C(c1ccco1)N1CCCn2nc(-c3ccncc3)cc2C1 |
| 790 s | c1ccc(-n2ccnc2SCc2nc(-c3ccc4c(c3)OCO4)no2)cc1 |
| 694 s | Cc1ccc(CNC(=O)Cn2cc(C(=O)N3CCCC3)c(=O)c3ccc(C)nc32)cc1 |
| 569 s | CCCCN1CCN(C(=O)C2CCCN(c3cnc4nccnc4c3)C2)CC1 (stereo not drawn) |
| 649 s | CCOc1cccc(C2CC(c3ccc(Br)cc3)=NC3(CCN(C)CC3)N2)c1O (stereo not drawn) |
| 705 s | CCCNC(=O)c1cccc(-c2nc3cccnc3n2CCC)c1 |
| 1150 s | CCc1ccc(-c2noc(Cn3c(=O)n(-c4cccc(C)c4)c(=O)c4sccc43)n2)cc1 |
| 988 s | CCc1ccc(N2CC(c3nc(-c4cc(OC)c(OC)c(OC)c4)no3)CC2=O)cc1 (stereo not drawn) |
| 678 s | COc1ccc(N2CCN(C(=O)C3CC(=O)N(c4ccc5oc(C)nc5c4)C3)CC2)cc1 (stereo not drawn) |
| 669 s | CC(=O)N1CCN(Cc2nc(-c3ccc(N4CCCC(C)C4)nc3)no2)CC1 (stereo not drawn) |
| 660 s | COc1cccc(C(O)CN2CCN(c3ccc(F)cc3)CC2)c1 (stereo not drawn) |
| 602 s | CCN1CCN(c2ccc3nnc(CCc4nc(-c5ccc(F)cc5)no4)n3n2)CC1 |
| 996 s | Cc1ccccc1N1CCN(C(=O)c2ccnc(N3CCCC3)n2)CC1 |

Second part, the molecule before the results:

| Compound | RP-LC retention time |
| --- | --- |
| CS(=O)(=O)NCC(c1ccsc1)N1CCc2ccccc2C1 (stereo not drawn) | 563 s |
| CC(=O)c1c(C)n(CC(=O)NCc2cc3c(cc2C)OCCCO3)c2ccccc12 | 826 s |
| CCNC(=O)N1CCCC(c2cccc(C(=O)NC3CCCCCC3)c2)C1 (stereo not drawn) | 876 s |
| Cc1nn(CCCC(=O)NCc2ccco2)c(=O)c2nn(-c3ccccc3)c(C)c12 | 736 s |
| Cc1nnc(SCC(=O)N2CCOCC2)s1 | 560 s |
| COc1ccc(-c2c(C)noc2NC(C)=O)cc1S(=O)(=O)NCc1ccc(C)o1 | 714 s |
| CCCNc1cc(N2CCC(CCC(=O)NC3CC3)CC2)ncn1 | 588 s |
| O=C1NCCC1Cc1ccc(C(F)(F)F)cc1 (stereo not drawn) | 710 s |
| COc1ccc(S(=O)(=O)NCCc2cn(CC(C)C)c3ncccc23)cc1Cl | 962 s |
| COc1cc(OC)cc(C(=O)Nc2nc(-c3ccc4c(c3)NC(=O)C(C)O4)c(C)s2)c1 (stereo not drawn) | 962 s |
| COc1ccc(C2CC(=O)N(c3ccccc3)C(=O)C2)cc1OC | 860 s |
| O=C(Cn1nc2c3ccc(Cl)cc3ncn2c1=O)NCc1ccccc1 | 716 s |
| CCCN1C(=O)c2cc(C(=O)N3CCC(C)CC3)nn2CC1(C)C(=O)NC1CCCC1 (stereo not drawn) | 817 s |
| CCN(CC)CCNC(=O)C(C)n1c2ccccc2c2cnn(C)c(=O)c21 (stereo not drawn) | 609 s |
| COC(=O)C1=CCCCCC(N2CCOCC2)=C1C(=O)OC | 684 s |
| O=C(Nc1ccccc1F)C(=O)c1ccc[nH]1 | 858 s |
| CCOc1cccc2cc(C(=O)N3CCOCC3)oc12 | 718 s |
| C[C@H]1CCC/C=C/[C@@H]2C[C@H](O)C[C@H]2[C@H](O)/C=C/C(=O)O1 | 782 s |
| COc1ccc(NC(=O)C2CN(S(=O)(=O)C3CC3)CC23CCCCC3)c(OC)c1 (stereo not drawn) | 961 s |
| Cc1noc(C)c1S(=O)(=O)N1CC(n2cc(C(=O)NCC3CC3)nn2)C1 | 757 s |
